Data published in ChEMBL document CHEMBL4251597, “Discovery and evolution of aloperine derivatives as a new family of HCV inhibitors with novel mechanism” (Eur J Med Chem, 2018).
Activity calls are given as the source filed them. The calls are words filed in the database; no cut-off is given here.

Tests used:
Hepatitis C virus [1] = test: Antiviral activity against HCV infected in human GS4.3 cells assessed as inhibition of NS3/4A levels at 0.8 uM treated with fresh media containing compound every 2 days measured after 6 days by Western blot method; format: functional, organism-based; settings: Hepacivirus hominis
Hepatitis C virus [2] = test: Antiviral activity against 22.5 to 90 IU/cell of HCV J6/JFH/JC-1 infected in human Huh7.5 cells assessed as inhibition of NS3/4A levels at 0.05 uM treated with fresh media containing compound every 2 days by Western blot method; format: functional, organism-based; settings: Hepacivirus hominis
Hepatitis C virus [3] = test: Antiviral activity against 22.5 to 90 IU/cell of HCV J6/JFH/JC-1 infected in human Huh7.5 cells assessed as inhibition of viral core protein levels at 0.05 uM treated with fresh media containing compound every 2 days by Western blot method; format: functional, organism-based; settings: Hepacivirus hominis
Hepatitis C virus [4] = test: Antiviral activity against HCV J6/JFH/JC-1 infected in human Huh7.5 cells harboring […] S282T mutant assessed as inhibition of viral core protein levels at 0.01 to 1 uM treated with fresh media containing compound every 2 days by Western blot method; format: functional, organism-based; settings: Hepacivirus hominis
Hepatitis C virus [5] = test: Antiviral activity against HCV J6/JFH/JC-1 infected in human Huh7.5 cells assessed as inhibition of NS3/4A S282T mutant levels at 0.01 to 1 uM treated with fresh media containing compound every 2 days by Western blot method; format: functional, organism-based; settings: Hepacivirus hominis
Hepatitis C virus [6] = test: Antiviral activity against HCV infected in human GS4.3 cells assessed as inhibition of viral core protein levels at 0.8 uM treated with fresh media containing compound every 2 days measured after 6 days by Western blot method; format: functional, organism-based; settings: Hepacivirus hominis
Hepatitis C virus [7] = test: Antiviral activity against HCV J6/JFH/JC-1 infected in human Huh7.5 cells assessed as inhibition of viral RNA replication after 72 hrs by qRT-PCR method; format: functional, organism-based, Hepacivirus hominis; settings: J6/JFH/JC-1, Huh7.5, 72 h
Hepatitis C virus [8] = test: Antiviral activity against HCV J6/JFH/JC-1 infected in human Huh7.5 cells assessed as inhibition of NS3/4A A156T mutant levels at 0.01 to 1 uM treated with fresh media containing compound every 2 days by Western blot method; format: functional, organism-based; settings: Hepacivirus hominis
Hepatitis C virus [9] = test: Antiviral activity against HCV J6/JFH/JC-1 infected in human Huh7.5 cells assessed as inhibition of NS3/4A protein levels at 0.5 uM by Western blot method; format: functional, organism-based; settings: Hepacivirus hominis, TDE = time-dependent effect
Hepatitis C virus [10] = test: Antiviral activity against HCV infected in human GS4.3 cells assessed as inhibition of NS3/4A levels at 0.5 uM treated with fresh media containing compound every 2 days measured after 6 days by Western blot method; format: functional, organism-based; settings: Hepacivirus hominis
Hepatitis C virus [11] = test: Antiviral activity against HCV J6/JFH/JC-1 infected in human Huh7.5 cells assessed as inhibition of viral core protein levels at 0.05 uM preincubated for 2 hrs followed addition of Huh7.5 cells for 4 hrs measured within 72 hrs by Western blot method; format: functional, organism-based; settings: Hepacivirus hominis
Hepatitis C virus [12] = test: Antiviral activity against HCV J6/JFH/JC-1 infected in human Huh7.5 cells assessed as inhibition of NS3/4A levels at 0.05 uM preincubated for 2 hrs followed by centrifugation for 4 hrs and subsequent addition of Huh7.5 cells measured within 72 hrs by Western blot method; format: functional, organism-based; settings: Hepacivirus hominis
[13] = Cytotoxicity against human Huh7.5 cells after 72 hrs by MTT assay; format: cell-based
Hepatitis C virus [14] = test: Antiviral activity against HCV J6/JFH/JC-1 infected in human Huh7.5 cells harboring NS3/4A A156T mutant assessed as inhibition of viral core protein levels at 0.01 to 1 uM treated with fresh media containing compound every 2 days by Western blot method; format: functional, organism-based; settings: Hepacivirus hominis
Hepatitis C virus [15] = test: Antiviral activity against HCV J6/JFH/JC-1 infected in human Huh7.5 cells assessed as inhibition of viral core protein levels at 0.05 uM preincubated for 2 hrs followed by centrifugation for 4 hrs and subsequent addition of Huh7.5 cells measured within 72 hrs by Western blot method; format: functional, organism-based; settings: Hepacivirus hominis
[16] = Selectivity index, ratio of CC50 for human Huh7.5 cells to EC50 for HCV J6/JFH/JC-1; format: toxicity; settings: read-out: Ratio CC50/EC50
Hepatitis C virus [17] = test: Antiviral activity against HCV infected in human GS4.3 cells assessed as inhibition of viral core protein levels at 0.5 uM treated with fresh media containing compound every 2 days measured after 6 days by Western blot method; format: functional, organism-based; settings: Hepacivirus hominis
Hepatitis C virus [18] = test: Antiviral activity against HCV J6/JFH/JC-1 infected in human Huh7.5 cells assessed as inhibition of viral core protein levels at 0.5 uM by Western blot method; format: functional, organism-based; settings: Hepacivirus hominis, TDE = time-dependent effect
Hepatitis C virus [19] = test: Antiviral activity against HCV J6/JFH/JC-1 infected in human Huh7.5 cells assessed as inhibition of NS3/4A levels at 0.05 uM preincubated for 2 hrs followed addition of Huh7.5 cells for 4 hrs measured within 72 hrs by Western blot method; format: functional, organism-based; settings: Hepacivirus hominis
Hepatitis C virus [20] = test: Antiviral activity against HCV J6/JFH/JC-1 infected in human Huh7.5 cells harboring NS3/4A D168V mutant assessed as inhibition of viral core protein levels at 0.01 to 1 uM treated with fresh media containing compound every 2 days by Western blot method; format: functional, organism-based; settings: Hepacivirus hominis
Hepatitis C virus [21] = test: Antiviral activity against HCV J6/JFH/JC-1 infected in human Huh7.5 cells assessed as inhibition of NS3/4A D168V mutant levels at 0.01 to 1 uM treated with fresh media containing compound every 2 days by Western blot method; format: functional, organism-based; settings: Hepacivirus hominis

## CC(C)OC(=O)[C@H](C)NP(=O)(OC[C@H]1O[C@@H](n2ccc(=O)[nH]c2=O)[C@](C)(F)[C@@H]1O)Oc1ccccc1 (stereo partly specified)
Hepatitis C virus [1]
  inhibition: Active
Hepatitis C virus [2]
  inhibition: inactive
Hepatitis C virus [3]
  inhibition: inactive
Hepatitis C virus [4]
  inhibition: inactive
Hepatitis C virus [5]
  inhibition: inactive
Hepatitis C virus [6]
  inhibition: Active

## CCC[C@H](NC(=O)[C@@H]1[C@H]2CCC[C@H]2CN1C(=O)[C@@H](NC(=O)[C@@H](NC(=O)c1cnccn1)C1CCCCC1)C(C)(C)C)C(=O)C(=O)NC1CC1 [TELAPREVIR]
Hepatitis C virus [7]
  EC50: 0.03 µM
Hepatitis C virus [8]
  inhibition: inactive
Hepatitis C virus [9]
  inhibition: Tde
Hepatitis C virus [10]
  inhibition: Active
Hepatitis C virus [11]
  inhibition: Active
Hepatitis C virus [12]
  inhibition: inactive
[13]
  CC50 at 72 h: 25.2 µM
Hepatitis C virus [14]
  inhibition: inactive
Hepatitis C virus [15]
  inhibition: inactive
[16]
  selectivity ratio: 840
Hepatitis C virus [17]
  inhibition: Active
Hepatitis C virus [18]
  inhibition: Tde
Hepatitis C virus [19]
  inhibition: Active

## COc1ccc2c(O[C@@H]3C[C@H]4C(=O)N[C@]5(C(=O)NS(=O)(=O)C6CC6)C[C@H]5/C=C/CCCCN(C)C(=O)[C@@H]4C3)cc(-c3nc(C(C)C)cs3)nc2c1C
Hepatitis C virus [20]
  inhibition: inactive
Hepatitis C virus [21]
  inhibition: inactive
